{"source": "patent US11622961B2", "about": "“Combination therapies for treating cancer” (TESARO, INC., priority 2017, dated 2023)", "key": {"[1]": {"system": "MDA-MB436 breast carcinoma cell line", "test": "MDA-MB436 HuNOG-EXL mice treated with niraparib and BLZ945: tumor volume", "assay_type": "in vivo", "details": "200 mg/kg BLZ945 5 day on and 2 day off plus 80 mg/kg niraparib tosylate once daily, oral; FIG. 6A, 6B (day 26)", "description": "This example describes the effects of treatment with an agent that inhibits PARP together with an agent that regulates activity in the tumor microenvironment in a mouse model of breast cancer. HuNOG-EXL mice inoculated with MDA-MB436 breast carcinoma cell line were orally administered: i) 80 mg/kg of niraparib tosylate once daily; ii) 200 mg/kg BLZ945 (an anti-CSF-1R that binds to CSF1R and inhibits CSF1R-mediated signal transduction pathways in tumor associated macrophages) on a 5 day on and 2 day off schedule; or iii) 80 mg/kg of niraparib tosylate and 200 mg/kg BLZ945 with the same dosing schedule as the single agent groups. Control mice were administered an isotype control antibody twice weekly via intraperitoneal injection.\nTumor volumes were recorded twice in a week with a gap of 2-3 days in between two measurements until tumor volume reached 600-1000 mm^3 in the control mice."}, "[2]": {"details": "crystalline solid; cited from earlier work"}, "[3]": {"system": "primary Murine skin cancer model mSK6005", "details": "50 mg/kg orally once daily for 21 days, compared to vehicle treated mice", "description": "This example describes the effects of treatment with an agent that inhibits PARP signaling on tumor microenvironment in a mouse model of colorectal cancer. 50 mg/kg of niraparib or vehicle (0.5% methylcellulose) was orally administered once daily for 21 days to C57BL/6 mice inoculated with primary Murine skin cancer model mSK6005 fragment developed from Apc^Min/J heterozygous background. Formalin-fixed, paraffin-embedded (FFPE) blocks were prepared from tumor samples collected from the mice. Immunohistochemistry (IHC) staining was performed on FFPE samples to assess expression of various markers for immune response in the tumor samples. Five fields in each staining, without necrosis, were randomly selected and imaged at 20× magnification.\nAll the images were analyzed with Image J software. For CD4, CD8, and FoxP3 IHC, positive cells were counted and the average of 5 fields positive cell numbers was taken as the score value of each case. For Iba1 IHC, the percentage of Iba1 positive expression area or mean gray was measured and taken as the score value of each case. The percentages of tumor cells at different intensity levels were evaluated according to the calculation below. Total Score=(% at 0)×0+(% at 1)×1+(% at 2)×2+(% at 3)×3"}, "MDA-MB-436": {"system": "MDA-MB-436", "from_the_text": "FIG. 5A depicts percentage of Ki67-positive CD4 and CD8 positive cells among total CD3 population in control or niraparib treated mice as assessed by flow cytometry.\nFIG. 5B depicts tumor volume in MDA-MB-436 huNOG-EXL mice treated with niraparib or control."}, "CTLA-4": {"biological_target": "T1, CTLA-4 (Homo sapiens, UniProt P16410)", "T1 construct": "host or cells: metastatic melanoma patients (endogenous CTLA-4)", "T1 sequence (P16410 36-223)": "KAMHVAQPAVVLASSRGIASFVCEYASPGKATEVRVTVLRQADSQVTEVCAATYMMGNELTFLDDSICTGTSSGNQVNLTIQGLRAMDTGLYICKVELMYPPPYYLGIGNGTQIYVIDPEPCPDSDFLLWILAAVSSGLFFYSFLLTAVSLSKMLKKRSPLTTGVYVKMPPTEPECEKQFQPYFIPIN", "details": "biopsy samples taken after tremelimumab treatment; cited from earlier work"}}, "data": [{"molecule": "CNC(=O)c1cc(Oc2ccc3nc(N[C@@H]4CCCC[C@H]4O)sc3c2)ccn1", "note": "[BLZ945]", "values": [{"measurement": "anti-tumor activity of the combination (tumor volume)", "setting": "[1]", "result": "enhances anti-tumor activity of niraparib"}]}, {"molecule": "Cc1ccc(S(=O)(=O)O)cc1.NC(=O)c1cccc2cn(-c3ccc([C@@H]4CCCNC4)cc3)nc12.O", "note": "[Niraparib tosylate monohydrate, (3 S)-3-[4-{7-(aminocarbonyl)-2H-indazol-2-yl}phenyl]piperidine tosylate monohydrate]", "values": [{"measurement": "hygroscopicity of drug substance", "setting": "[2]", "result": "non-hygroscopic"}]}, {"molecule": "NC(=O)c1cccc2cn(-c3ccc([C@@H]4CCCNC4)cc3)nc12", "note": "[niraparib, (3S)-3-[4-{7-(aminocarbonyl)-2H-indazol-2-yl}phenyl]piperidine]", "values": [{"measurement": "expression of CD4 in tumor samples (IHC)", "setting": "[3]", "result": "Increased expression"}, {"measurement": "expression of CD8 in tumor samples (IHC)", "setting": "[3]", "result": "Increased expression"}, {"measurement": "expression of FoxP3 in tumor samples (IHC)", "setting": "[3]", "result": "Increased expression"}, {"measurement": "expression of Iba1 in tumor samples (IHC)", "setting": "[3]", "result": "Increased expression"}, {"measurement": "tumor growth", "setting": "MDA-MB-436; 35 mg/kg QD×5/week (FIG. 5B)", "result": "reduction of tumor growth"}, {"measurement": "percentage of CD8+ cells", "setting": "MDA-MB-436; 35 mg/kg QD×5/week, flow cytometry (FIG. 5A)", "result": "increased percentage of CD8+ cells"}]}, {"molecule": "tremelimumab: anti-CTLA-4 antibody", "values": [{"measurement": "intratumoral infiltration by CD8+ cells", "setting": "CTLA-4", "result": "highly significant increase"}]}]}
